This note sets out measurements from publication PMC4836297, “Leveraging family-specific signatures for AMP discovery and high-throughput annotation” (Scientific Reports, 2016).

The test system of assay [1] is E. coli 25922 (NCIM 2931). The class given is cell-based, Escherichia coli. The following applies: for MIC (*50% inhibition): starred value: 50% inhibition only. As to the method:
(§1) Antimicrobial activity of the synthesized peptides was determined by broth microdilution assay and evaluated based on minimum inhibitory concentration (MIC). […] Gram negative microorganisms (Escherichia coli ATCC 8739, Escherichia coli ATCC 25922) were grown in Mueller-Hinton (MH) broth at 37 °C for 18h on a shaker to obtain an OD600nm of 0.8. Bacterial cultures were diluted in MH broth to obtain a cell density of 10^5–10^6 c.f.u/ml. Different concentrations of peptides, ranging from 1–100 μM were serially diluted in MH broth and inoculated with bacterial cultures in 1:1 ratio in sterile 96-well microtiter plates. The plates were incubated at 37 °C for 18h and antimicrobial activity was evaluated as MIC of the peptides by determining the absorbance at 600nm. The microorganisms were obtained from National Collection of Industrial Microorganisms (NCIM), Pune.

A further assay relates to E. coli 8739 (NCIM 2065). The format is cell-based, Escherichia coli. Particulars: for inhibition at 100 microM: 8739 (NCIM 2065, 18 h, 100 microM); for MIC (*50% inhibition): starred value: 50% inhibition only. The method, then:
as §1

[2] abbreviates: Escherichia coli ATCC 25922, complete growth inhibition, MH broth, 10^5–10^6 c.f.u/ml, peptides 1–100 μM, 37 °C 18h, absorbance at 600nm, average range, triplicates of three independent experiments.
The mark [3] stands for this setting: Escherichia coli ATCC 8739, complete growth inhibition, MH broth, 10^5–10^6 c.f.u/ml, peptides 1–100 μM, 37 °C 18h, absorbance at 600nm, average range, triplicates of three independent experiments.
Where [4] appears, read: Escherichia coli ATCC 25922, MH broth, 37 °C 18h, absorbance at 600nm, average range, triplicates of three independent experiments.
Setting [5] is: Escherichia coli ATCC 8739, MH broth, 37 °C 18h, absorbance at 600nm, average range, triplicates of three independent experiments.

Like-named read-outs stand apart in the source and are kept apart here. Marks after values point to notes of the source that are not given here. Residues, ends and D or L forms follow the SMILES beside them.

Gentamycin [reference compound]: the MIC (in assay [1] (setting [2]); in the assay with E. coli 8739 (NCIM 2065) (setting [3])) was 1.56 to 3.125 µM each time.

With `CC[C@H](C)[C@H](NC(=O)CNC(=O)[C@H](CC(=O)O)NC(=O)[C@H](CCCNC(=N)N)NC(=O)[C@@H](NC(=O)[C@H](CC(N)=O)NC(=O)[C@H](CCCNC(=N)N)NC(=O)CNC(=O)[C@@H](NC(=O)[C@H](CCCCN)NC(=O)[C@H](CCC(=O)O)NC(=O)[C@@H](NC(=O)[C@H](CCCCN)NC(=O)[C@H](CCCCN)NC(=O)[C@H](Cc1ccccc1)NC(=O)[C@@H](NC(=O)[C@H](CCCCN)NC(C)=O)[C@@H](C)CC)[C@@H](C)CC)C(C)C)C(C)C)C(=O)N[C@H](C(=O)N[C@@H](CCCCN)C(=O)N[C@@H](C)C(=O)NCC(=O)N1CCC[C@H]1C(=O)N[C@@H](C)C(=O)N[C@H](C(=O)N[C@@H](C)C(=O)N[C@H](C(=O)N[C@H](C(=O)N[C@@H](CCC(=O)O)C(=O)N[C@@H](CCC(N)=O)C(=O)N[C@@H](C)C(N)=O)C(C)C)C(C)C)C(C)C)[C@@H](C)CC` [CecH] (Ac-KIFKKIEKVGRNVRDGIIKAGPAVAVVEQA-NH2), the minimum inhibitory concentration (MIC) fell in the range of 6.25 to 12.5 µM in assay [1] (25922 (NCIM 2931, 18 h)) and 3.125 to 6.25 µM with E. coli 8739 (NCIM 2065) (8739 (NCIM 2065, 18 h)). Besides, the “antimicrobial activity (in words)” value (in assay [1] (Escherichia coli ATCC 25922); in the assay with E. coli 8739 (NCIM 2065) (Escherichia coli ATCC 8739)) was “activity similar to that of gentamycin” in each case.

In the case of `CSCC[C@H](NC(=O)[C@H](CCCNC(=N)N)NC(=O)[C@H](CCC(N)=O)NC(=O)[C@H](Cc1c[nH]c2ccccc12)NC(=O)[C@H](CO)NC(=O)[C@H](CCC(N)=O)NC(=O)[C@H](CCCCN)NC(C)=O)C(=O)N[C@@H](CCCNC(=N)N)C(=O)N[C@@H](CCCCN)C(=O)N[C@@H](CC(C)C)C(=O)N[C@@H](C)C(=O)N[C@@H](CC(C)C)C(=O)N[C@@H](CCCCN)C(=O)N[C@@H](CCCNC(=N)N)C(N)=O` [LactP1] (Ac-KQSWQRMRKLALKR-NH2), the “inhibition at 100 microM” value in assay [1] (25922 (NCIM 2931, 18 h, 100 microM)) stood at 50%; in the assay on E. coli 8739 (NCIM 2065), 50%. The “MIC (*50% inhibition)” value (in assay [1] (setting [4]); with E. coli 8739 (NCIM 2065) (setting [5])) was 50–100* microM in each case.

Take “PLSCRRKIGICVLIRCSGNMRQIGTCLGALVKCCR [DefH, 35-residue defensin family peptide retrieved using HMMs, Class II; N-acetylated, C-amidated]”: the MIC entry in assay [1] (setting [2]) was “NA (Did not show activity upto 100 microM)”. Moreover, in the assay with E. coli 8739 (NCIM 2065) (setting [5]), the “MIC (*50% inhibition)” value is 50–100* microM.

Turning to “WQRMRKL [LactP, N-acetylated, C-amidated]”, the “antimicrobial activity (in words)” value (in assay [1] (Escherichia coli ATCC 25922); in the assay with E. coli 8739 (NCIM 2065) (Escherichia coli ATCC 8739)) was “lacks activity” throughout. Besides, the MIC result (in assay [1] (setting [2]); against E. coli 8739 (NCIM 2065) (setting [3])) was “NA (Did not show activity upto 100 microM)” throughout.

Turning to `CSCC[C@H](NC(=O)[C@H](CCCNC(=N)N)NC(=O)[C@H](CCC(N)=O)NC(=O)[C@H](Cc1c[nH]c2ccccc12)NC(=O)[C@H](CO)NC(=O)[C@H](CCC(N)=O)NC(=O)[C@H](CCCCN)NC(=O)[C@H](CC(C)C)NC(=O)[C@H](CCC(=O)O)NC(=O)[C@H](CCC(=O)O)NC(=O)[C@H](CCCNC(=N)N)NC(=O)[C@H](CCCNC(=N)N)NC(=O)[C@H](CCCNC(=N)N)NC(=O)[C@H](CCCNC(=N)N)NC(C)=O)C(=O)N[C@@H](CCCNC(=N)N)C(=O)N[C@@H](CCCCN)C(=O)N[C@@H](CC(C)C)C(=O)N[C@@H](C)C(=O)N[C@@H](CC(C)C)C(=O)N[C@@H](CCCCN)C(=O)N[C@@H](CCCNC(=N)N)C(N)=O` [LactP2] (Ac-RRRREELKQSWQRMRKLALKR-NH2), the “MIC (*50% inhibition)” value in assay [1] (setting [4]) was 50–100* microM. In the assay with E. coli 8739 (NCIM 2065) (8739 (NCIM 2065, 18 h)), this compound showed an MIC of 50 to 100 µM. In addition, in the assay with E. coli 8739 (NCIM 2065), the “inhibition at 100 microM” value came out at 100%.

As usually defined, the MIC is the smallest concentration in the dilution series that meets the test's criterion for growth inhibition. As a reminder, the inhibition is the change of the read-out against control, counted positive when it falls.
